Data reported in patent publication US9090605B2, “Substituted 5-,6- and 7-membered heterocycles, medicaments containing such compounds, and their use” (Vitae Pharmaceuticals, Inc., priority 2010, dated 2015).
pIC50: −log10 of the molar value.

Target: T1, 11β-HSD1 (Homo sapiens, UniProt P28845)
Test: Inhibition of a microsomal preparation of 11β-HSD1, scintillation proximity assay, microsomes from CHO cells overexpressing human 11β-HSD1 (biological test example 2)
Type: biochemical
Parameters: expressed in transfected cells; host or cells: CHO cells (microsomes isolated from them)
Details: microsomes from CHO cells overexpressing human 11β-HSD1, SPA, [3H]cortisone, 90 minutes at room temperature; read-out: IC50, inhibitory activity on 11β-HSD 1
Experimental: All reactions were carried out at room temperature in 96 well clear flexible PET Microbeta plates (PerkinElmer). The assay begins by dispensing 49 μl of substrate solution [50 mM HEPES, pH 7.4, 100 mM KCl, 5 mM NaCl, 2 mM MgCl2, 2 mM NADPH and 160 nM [^3H]cortisone (1 Ci/mmol)] and mixing in 1 μL of the test compounds in dimethyl sulfoxide previously diluted in half-log increments (8 points) starting at 0.1 mM. After a 10 minute pre-incubation, 50 μL of enzyme solution containing microsomes isolated from CHO cells overexpressing human 11β-HSD1 (10-20 μg/ml of total protein) was added, and the plates were incubated for 90 minutes at room temperature. The reaction was stopped by adding 50 μl of the SPA beads suspension containing 10 μM 18β-glycyrrhetinic acid, 5 mg/ml protein A coated YSi SPA beads (GE Healthcare) and 3.3 μg/ml of anti-cortisol antibody (East Coast Biologics) in Superblock buffer (Bio-Rad). The plates were shaken for 120 minutes at room temperature, and the SPA signal corresponding to [^3H]cortisol was measured on a Microbeta plate reader.

T1 sequence (P28845 whole entry): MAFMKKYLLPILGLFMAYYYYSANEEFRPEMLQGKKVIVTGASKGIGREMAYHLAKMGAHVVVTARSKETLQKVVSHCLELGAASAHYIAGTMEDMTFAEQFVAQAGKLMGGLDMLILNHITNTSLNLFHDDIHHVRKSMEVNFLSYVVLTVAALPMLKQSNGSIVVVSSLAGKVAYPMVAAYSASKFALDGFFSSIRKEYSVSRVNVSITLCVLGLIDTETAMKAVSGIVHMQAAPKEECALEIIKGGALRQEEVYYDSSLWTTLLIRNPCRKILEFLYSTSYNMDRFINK

Row | SMILES | pIC50
1 | C[C@@H](c1ccc(-c2cccc(-n3ccccc3=O)n2)cc1)N1CC[C@](CC(C)(C)O)(c2ccccc2)OC1=O [Example 41, (S)-6-(2-hydroxy-2-methylpropyl)-3-((S)-1-{4-[6-(2-oxopyridin-1 (2H)-yl)pyridin-2-yl]phenyl}ethyl)-6-phenyl-1,3-oxazinan-2-one] | 8.64
2 | C[C@@H](c1ccc(-c2csc(-n3ccccc3=O)n2)cc1)N1CC[C@](CC(C)(C)O)(c2ccccc2)OC1=O [Example 37, (S)-6-(2-hydroxy-2-methylpropyl)-3-((S)-1-{4-[2-(2-oxopyridin-1(2H)-yl)thiazol-4-yl]phenyl}ethyl)-6-phenyl-1,3-oxazinan-2-one] | 9.30
3 | C[C@@H](c1ccc(-c2cnc(N3CC(F)C3)nc2)cc1)N1CC[C@](CC(C)(C)O)(c2ccccc2)OC1=O [Example 32, 3-((S)-1-{4-[2-(3-fluoroazetidin-1-yl)pyrimidin-5-yl]phenyl}ethyl)-(S)-6-(2-hydroxy-2-methylpropyl)-6-phenyl-1,3-oxazinan-2-one] | 9.15
4 | C[C@@H](c1ccc(-c2ccnc(N3CCOCC3)n2)cc1)N1CC[C@](CC(C)(C)O)(c2ccccc2)OC1=O [Example 38, (S)-6-(2-hydroxy-2-methylpropyl)-3-{(S)-1-[4-(2-morpholinopyrimidin-4-yl)phenyl]ethyl}-6-phenyl-1,3-oxazinan-2-one] | 8.64
5 | C[C@@H](c1ccc(-c2cnc(N3CCN(C)C3=O)nc2)cc1)N1CC[C@](CC(C)(C)O)(c2ccccc2)OC1=O [Example 29, (S)-6-(2-hydroxy-2-methylpropyl)-3-((S)-1-{4-[2-(3-methyl-2-oxoimidazolidin-1-yl)pyrimidin-5-yl]phenyl}ethyl)-6-phenyl-1,3-oxazinan-2-one] | 8.01
6 | C[C@@H](c1ccc(-c2ccc(C3(C(N)=O)CC3)nc2)cc1)N1CC[C@](CC(C)(C)O)(c2ccccc2)NC1=O [Example 49, 1-[5-(4-{(S)-1-[(S)-4-(2-Hydroxy-2-methyl-propyl)-2-oxo-4-phenyl-tetrahydro-pyrimidin-1-yl]-ethyl}-phenyl)-pyridin-2-yl]-cyclopropanecarboxylic acid amide] | 8.82

Target: T1, 11β-HSD1
Test: In vitro inhibition of 11β-HSD1, HTRF detection of cortisol generated by human liver microsomes (biological test example 1)
Type: biochemical
Parameters: detecting cortisol generated from cortisterone by human liver microsomes; from tissue; host or cells: human liver microsomes
Details: 1 hour at 37° C., cortisone 80 nM, NADPH 200 μM, read-out: IC50, inhibitory activity on 11β-HSD 1
Experimental: Briefly, compounds were incubated for 1 hour at 37° C. in Tris buffer (20 mM tris, 5 mM EDTA, pH 6.0) containing NADPH (200 μM) and cortisone (80 nM). Cortisol generated in the reaction was then detected with a competitive immunoassay, involving two HTRF conjugates: cortisol linked to XL665 and anti-cortisol antibody labeled with Europium cryptate. The incubation period for detection reaction was typically 2 hours. The amount of cortisol was determined by reading the time-resolved fluorescence of the wells (Ex 320/75 nm; Em 615/8.5 nm and 665/7.5 nm). The ratio of the two emission signals was then calculated (Em665*10000/Em615). […] Each assay also contained a calibration curve with cortisol to transform the fluorescent data into cortisol concentrations. Percent inhibition (% CTL) of each compound was determined relative to the carbenoxolone signal and IC50 curves were generated.

Row | SMILES | pIC50
7 | C[C@@H](c1ccc(-c2ccc(C3(C#N)CC3)cn2)cc1)N1CC[C@](CC(C)(C)O)(c2ccccc2)OC1=O [Example 17, 1-[6-(4-{(S)-1-[(S)-6-(2-Hydroxy-2-methyl-propyl)-2-oxo-6-phenyl-[1,3]oxazinan-3-yl]-ethyl}-phenyl)-pyridin-3-yl]-cyclopropanecarbonitrile] | 7.09
8 | C[C@@H](c1ccc(-c2ccn([C@@H]3CCOC3)c(=O)c2)cc1)N1CC[C@](CC(C)(C)O)(c2ccccc2)OC1=O [Example 12, (S)-6-(2-Hydroxy-2-methyl-propyl)-3-((S)-1-{4-[2-oxo-1-((R)-tetrahydro-furan-3-yl)-1,2-dihydro-pyridin-4-yl]-phenyl}-ethyl)-6-phenyl-[1,3]oxazinan-2-one] | 7.04
9 | C[C@@H](c1ccc(-c2ccc(C3(S(C)(=O)=O)CC3)cn2)cc1)N1CC[C@](CC(C)(C)O)(c2ccccc2)OC1=O [Example 25, (S)-6-(2-Hydroxy-2-methyl-propyl)-3-((S)-1-{4-[5-(1-methanesulfonyl-cyclopropyl)-pyridin-2-yl]-phenyl}-ethyl)-6-phenyl-[1,3]oxazinan-2-one] | 7.08
10 | C[C@@H](c1ccc(-c2ccc(N3CCC[C@@H]3C(N)=O)nn2)cc1)N1CC[C@](CC(C)(C)O)(c2ccccc2)OC1=O [Example 55, (R)-1-[6-(4-{(S)-1-[(S)-6-(2-Hydroxy-2-methyl-propyl)-2-oxo-6-phenyl-[1,3]oxazinan-3-yl]-ethyl}-phenyl)-pyridazin-3-yl]-pyrrolidine-2-carboxylic acid amide] | 7.06
11 | C[C@@H](c1ccc(-c2ccc(C3(O)CCN(C)C3=O)nc2)cc1)N1CC[C@](CC(C)(C)O)(c2ccccc2)OC1=O (stereo partly drawn) [Example 56, 3-((S)-1-{4-[6-(3-Hydroxy-1-methyl-2-oxo-pyrrolidin-3-yl)-pyridin-3-yl]-phenyl}-ethyl)-(S)-6-(2-hydroxy-2-methyl-propyl)-6-phenyl-[1,3]oxazinan-2-one] | 7.23
12 | C[C@@H](c1ccc(-c2cnn(C3CCOCC3)c2)cc1)N1CC[C@](CC(C)(C)O)(c2ccccc2)OC1=O [Example 14, (S)-6-(2-Hydroxy-2-methyl-propyl)-6-phenyl-3-((S)-1-{4-[1-(tetrahydro-pyran-4-yl)-1H-pyrazol-4-yl]-phenyl}-ethyl)-[1,3]oxazinan-2-one] | 7.32
13 | C[C@@H](c1ccc(-c2cnn([C@H]3CCOC3)c2)cc1)N1CC[C@](CC(C)(C)O)(c2ccccc2)OC1=O [Example 16, (S)-6-(2-Hydroxy-2-methyl-propyl)-6-phenyl-3-((S)-1-{4-[1-((S)-tetrahydro-furan-3-yl)-1H-pyrazol-4-yl]-phenyl}-ethyl)-[1,3]oxazinan-2-one] | 7.54

More lines, now with the values ahead:

Row | pIC50 | SMILES
14 | 6.74 | CCOC(=O)C1(c2cc(-c3ccc([C@H](C)N4CC[C@](CC(C)(C)O)(c5ccccc5)OC4=O)cc3)ccn2)CC1 [Example 44, 1-[4-(4-{(S)-1-[(S)-6-(2-Hydroxy-2-methyl-propyl)-2-oxo-6-phenyl-[1,3]oxazinan-3-yl]-ethyl}-phenyl)-pyridin-2-yl]-cyclopropanecarboxylic acid ethyl ester]
15 | 7.19 | CNC(=O)C1(c2cc(-c3ccc([C@H](C)N4CC[C@](CC(C)(C)O)(c5ccccc5)OC4=O)cc3)ccn2)CC1 [Example 47, 1-[4-(4-{(S)-1-[(S)-6-(2-Hydroxy-2-methyl-propyl)-2-oxo-6-phenyl-[1,3]oxazinan-3-yl]-ethyl}-phenyl)-pyridin-2-yl]-cyclopropanecarboxylic acid methylamide]
16 | 7.51 | CNC(=O)C1(c2ccc(-c3ccc([C@H](C)N4CC[C@](CC(C)(C)O)(c5ccccc5)OC4=O)cc3)cn2)CC1 [Example 5, 1-[5-(4-{(S)-1-[(S)-6-(2-Hydroxy-2-methyl-propyl)-2-oxo-6-phenyl-[1,3]oxazinan-3-yl]-ethyl}-phenyl)-pyridin-2-yl]-cyclopropanecarboxylic acid methylamide]
17 | 7.17 | C[C@@H](c1ccc(-c2ccc(C3(C#N)CC3)nc2)cc1)N1CC[C@](CC(C)(C)O)(c2ccccc2)OC1=O [Example 2, 1-[5-(4-{(S)-1-[(S)-6-(2-Hydroxy-2-methyl-propyl)-2-oxo-6-phenyl-[1,3]oxazinan-3-yl]-ethyl}-phenyl)-pyridin-2-yl]-cyclopropanecarbonitrile]
18 | 7.14 | C[C@@H](c1ccc(-c2ccc(C3(C(N)=O)CCOCC3)nc2)cc1)N1CC[C@](CC(C)(C)O)(c2ccccc2)OC1=O [Example 50, 4-[5-(4-{(S)-1-[(S)-6-(2-Hydroxy-2-methyl-propyl)-2-oxo-6-phenyl-[1,3]oxazinan-3-yl]-ethyl}-phenyl)-pyridin-2-yl]-tetrahydro-pyran-4-carboxylic acid amide]
19 | 6.94 | CNC(=O)C1(c2cccc(-c3ccc([C@H](C)N4CC[C@](CC(C)(C)O)(c5ccccc5)OC4=O)cc3)n2)CC1 [Example 23, 1-[6-(4-{(S)-1-[(S)-6-(2-Hydroxy-2-methyl-propyl)-2-oxo-6-phenyl-[1,3]oxazinan-3-yl]-ethyl}-phenyl)-pyridin-2-yl]-cyclopropanecarboxylic acid methylamide]
20 | 7.37 | C[C@@H](c1ccc(-c2ccc(N3CCC[C@@H]3C(N)=O)nc2)cc1)N1CC[C@](CC(C)(C)O)(c2ccccc2)OC1=O [Example 53, (R)-1-[5-(4-{(S)-1-[(S)-6-(2-Hydroxy-2-methyl-propyl)-2-oxo-6-phenyl-[1,3]oxazinan-3-yl]-ethyl}-phenyl)-pyridin-2-yl]-pyrrolidine-2-carboxylic acid amide]
21 | 7.38 | C[C@@H](c1ccc(-c2ccc(C3CCN(C)C3=O)nc2)cc1)N1CC[C@](CC(C)(C)O)(c2ccccc2)OC1=O (stereo partly drawn) [Example 52, (S)-6-(2-Hydroxy-2-methyl-propyl)-3-((S)-1-{4-[6-(1-methyl-2-oxo-pyrrolidin-3-yl)-pyridin-3-yl]-phenyl}-ethyl)-6-phenyl-[1,3]oxazinan-2-one]
22 | 7.10 | C[C@@H](c1ccc(-c2ccc(C3(C(N)=O)CCC3)nc2)cc1)N1CC[C@](CC(C)(C)O)(c2ccccc2)OC1=O [Example 51, 1-[5-(4-{(S)-1-[(S)-6-(2-Hydroxy-2-methyl-propyl)-2-oxo-6-phenyl-[1,3]oxazinan-3-yl]-ethyl}-phenyl)-pyridin-2-yl]-cyclobutanecarboxylic acid amide]
